Reference: US9475848B2 (priority 2012, dated 2016)
Several values for one entry are separate records, joined by “and”; a condition that tells them apart may be missing. Identical values can stand only once. Like-named read-outs stand apart in the source and are kept apart here.

How the values were obtained:
[1] = system: pertussis toxin (PT) production; assay type: cell-based, Bordetella pertussis
[2] = system: B. pertussis; assay type: cell-based, Bordetella pertussis
[3] = system: Bordetella pertussis; assay type: cell-based; conditions: for accumulation of bvg^− cells: MgSO4 20 mM (series C), niacin 0.604 g/L (series B) or both, compared with series A
[4] = system: B. pertussis
[5] = COQ255: niacin 0.604 g/L in first two pre-cultures, 0.004 g/L thereafter

N[C@@H](CS)C(=O)O [L-cysteine]
PT concentration at end of fermentation [1]: 19 mg/L and 13 mg/L
Specific PT production at end of fermentation [1]: 2.0 mg L^−1 mg L^−1 OD650 nm^−1 and 1.2 mg L^−1 OD650 nm^−1
decrease in PT production compared to COQ280 [1]: 32%
Final biomass (OD650 nm) ([2]; COQ280: L-cysteine 0.04 g/L): 9.7 OD650 nm
Final biomass (OD650 nm) ([2]; COQ396: L-cysteine 0.2 g/L): 11.0 OD650 nm

O=P([O-])(O)O.[K+] [KH2PO4]
PT concentration at end of fermentation [1]: 19 mg/L and 13 mg/L
Specific PT production at end of fermentation [1]: 2.0 mg L^−1 mg L^−1 OD650 nm^−1 and 1.4 mg L^−1 OD650 nm^−1
decrease in PT production compared to COQ280 [1]: 32%
Final biomass (OD650 nm) ([2]; COQ279: KH2PO4 0.8 g/L): 9.2 OD650 nm
Final biomass (OD650 nm) ([2]; COQ280: KH2PO4 0.5 g/L): 9.7 OD650 nm

O=C(O)[C@@H]1CCCN1 [proline]
Final biomass (OD650 nm) ([2]; COQ278: proline 12 g/L, sodium glutamate 7 g/L, NaCl 0 g/L): 11.3 OD650nm
Final biomass (OD650 nm) ([2]; COQ280: proline 1 g/L, sodium glutamate 20 g/L, NaCl 0 g/L): 9.7 OD650nm

O=S(=O)([O-])[O-].[Mg+2] [MgSO4]
accumulation of bvg^− cells [3]: significantly lower accumulation of bvg^− cells
Proportion of bvg^− cells ([3]; Series C: MgSO4 20 mM, niacin 0.004 g/L, end of fourth culture, start 1%): 2%
Proportion of bvg^− cells ([3]; Series C: MgSO4 20 mM, niacin 0.004 g/L, end of third culture, start 1%): 3%

O=C(O)c1cccnc1 [niacin]
number of generations for which control of bvg^− take-over is effective [3]: up to 100 generations
accumulation of bvg^− cells [3]: significantly lower accumulation of bvg^− cells
Proportion of bvg^− cells ([3]; Series A: niacin 0.004 g/L, no MgSO4, end of fourth culture, start 1%): 8%
Proportion of bvg^− cells ([3]; Series A: niacin 0.004 g/L, no MgSO4, end of third culture, start 1%): 5%
Proportion of bvg^− cells ([3]; Series B: niacin 0.604 g/L, no MgSO4, end of fourth culture, start 1%): 2%
Proportion of bvg^− cells ([3]; Series B: niacin 0.604 g/L, no MgSO4, end of third culture, start 1%): 1%
Proportion of bvg^− cells ([3]; Table 4 Series A: niacin 0.004 g/L, end of first culture, start 6%): 9%
Proportion of bvg^− cells ([3]; Table 4 Series A: niacin 0.004 g/L, end of second culture, start 6%): 14%
Proportion of bvg^− cells ([3]; Table 4 Series A: niacin 0.004 g/L, end of third culture, start 6%): 24%
Proportion of bvg^− cells ([3]; Table 4 Series B: niacin 0.021 g/L, end of first culture, start 6%): 9%
Proportion of bvg^− cells ([3]; Table 4 Series B: niacin 0.021 g/L, end of second culture, start 6%): 15%
Proportion of bvg^− cells ([3]; Table 4 Series B: niacin 0.021 g/L, end of third culture, start 6%): 19%
Proportion of bvg^− cells ([3]; Table 4 Series C: niacin 0.113 g/L, end of first culture, start 6%): 10%
Proportion of bvg^− cells ([3]; Table 4 Series C: niacin 0.113 g/L, end of second culture, start 6%): 14%
Proportion of bvg^− cells ([3]; Table 4 Series C: niacin 0.113 g/L, end of third culture, start 6%): 21%
Proportion of bvg^− cells ([3]; Table 4 Series D: niacin 0.604 g/L, end of first culture, start 6%): 5%
Proportion of bvg^− cells ([3]; Table 4 Series D: niacin 0.604 g/L, end of second culture, start 6%): 5%
Proportion of bvg^− cells ([3]; Table 4 Series D: niacin 0.604 g/L, end of third culture, start 6%): 4%
controlling the take-over of bvg^− cells ([3]; low niacin concentrations): less effective
control of the take-over of bvg^− cells ([3]; niacin 0.6 g/L rather than 0.004 g/L, independently of initial proportion of bvg− cells): effectively control the take-over of bvg^− cells
bvg^− take-over ([3]; niacin 0.604 g/L, up to 15 generations): no bvg^− take-over was observed
PT concentration at end of fermentation [1]: 22.8 mg/L
Specific PT production at end of fermentation [1]: 3.2 mg L^−1 OD650 nm^−1
Final biomass (OD650 nm) [2, 5]: 7.2 OD650 nm
Total fermentation time [2, 5]: 43 h
Final proportion of bvg^− in 20 L-fermentor [4]: 13%
Initial proportion of bvg^− in 20 L-fermentor [4]: 3%
